{"source": "patent US20240300934A1", "about": "“COMPOUNDS FOR MODULATING MYCOBACTERIUM TUBERCULOSIS RESPONSE” (priority 2021, published 2024)", "key": {"[1]": {"experiment": "Human liver microsomal stability", "type": "in vitro ADME"}, "[2]": {"experiment": "Mouse liver microsomal stability", "type": "in vitro ADME", "conditions": "mouse liver microsomes", "description": "(§1) Assays examining mouse and human liver microsomal stability, kinetic aqueous solubility, mouse and human plasma protein binding and stability, and human cytochrome P450 inhibition characteristics of the compounds were run by BioDuro, Incorporated, using standard protocols as previously described (Wang et al, 2020). hERG inhibition assays were also performed by BioDuro, Incorporated."}, "[3]": {"tested_on": "Mtb", "experiment": "Mtb growth assay in cholesterol media (OD600)", "type": "cell-based, Mycobacterium tuberculosis"}, "[4]": {"biological_target": "human CYP 450 2C19 (Homo sapiens, UniProt P33261)", "sequence (P33261 whole entry)": "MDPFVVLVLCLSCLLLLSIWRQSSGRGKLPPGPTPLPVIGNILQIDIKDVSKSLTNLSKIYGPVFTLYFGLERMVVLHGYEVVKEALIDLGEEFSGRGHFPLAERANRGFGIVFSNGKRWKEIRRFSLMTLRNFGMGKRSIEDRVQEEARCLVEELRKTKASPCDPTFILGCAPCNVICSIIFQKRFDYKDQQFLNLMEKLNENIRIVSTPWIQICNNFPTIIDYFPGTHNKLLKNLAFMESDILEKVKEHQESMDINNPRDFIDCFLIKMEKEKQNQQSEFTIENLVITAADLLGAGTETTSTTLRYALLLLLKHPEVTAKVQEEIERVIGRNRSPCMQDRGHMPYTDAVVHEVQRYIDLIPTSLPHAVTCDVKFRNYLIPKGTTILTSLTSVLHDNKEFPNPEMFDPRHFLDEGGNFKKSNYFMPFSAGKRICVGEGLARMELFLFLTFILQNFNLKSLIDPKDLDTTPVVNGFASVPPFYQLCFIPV", "experiment": "Human cytochrome P450 inhibition, 2C19", "type": "in vitro ADME", "conditions": "10 μM"}, "[5]": {"tested_on": "Mtb in bone marrow-derived macrophages (BMDMs)", "experiment": "Mtb growth in primary murine bone marrow-derived macrophages (CFU)", "type": "cell-based, Mycobacterium tuberculosis", "conditions": "10 μM; added 2 hrs post-infection; eight-day time-course", "procedure": "C57BL/6J wild type mice (Jackson Laboratories) were used for extraction of bone marrow-derived macrophages. Cells were harvested and expanded in DMEM containing 10% FBS, 15% L-cell conditioned media, 2 mM L-glutamine, 1 mM sodium pyruvate, and penicillin/streptomycin as needed in a 37° C. incubator in a 5% CO2 atmosphere. […] Macrophages were lysed with water containing 0.01% sodium dodecyl sulfate and a dilution series of the samples plated on 7H10 agar for CFU determination."}, "[6]": {"experiment": "Kinetic aqueous solubility in pH 7.4 PBS", "type": "physicochemical", "conditions": "read-out: Kinetic Aqueous Solubility S", "description": "as §1"}, "[7]": {"biological_target": "human CYP 450 2C9 (Homo sapiens, UniProt P11712)", "sequence (P11712 whole entry)": "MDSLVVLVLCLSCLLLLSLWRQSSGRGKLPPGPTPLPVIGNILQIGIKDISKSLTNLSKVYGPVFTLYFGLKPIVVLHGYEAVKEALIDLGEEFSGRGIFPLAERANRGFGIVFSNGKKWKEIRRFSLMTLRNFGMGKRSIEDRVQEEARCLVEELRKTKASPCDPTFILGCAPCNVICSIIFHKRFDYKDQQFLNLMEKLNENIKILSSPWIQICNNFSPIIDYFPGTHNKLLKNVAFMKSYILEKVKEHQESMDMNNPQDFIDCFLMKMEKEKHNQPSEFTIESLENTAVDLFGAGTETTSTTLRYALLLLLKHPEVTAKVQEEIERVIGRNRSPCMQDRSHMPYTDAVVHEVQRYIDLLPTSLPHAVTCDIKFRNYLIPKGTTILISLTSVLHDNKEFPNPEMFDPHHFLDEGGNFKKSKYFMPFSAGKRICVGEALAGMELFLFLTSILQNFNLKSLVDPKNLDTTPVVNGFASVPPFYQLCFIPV", "experiment": "Human cytochrome P450 inhibition, 2C9", "type": "in vitro ADME", "conditions": "10 μM"}, "[8]": {"tested_on": "Mtb", "experiment": "C3HeB/FeJ murine Mtb infection model", "type": "in vivo, C3HeB/FeJ mice", "procedure": "C3HeB/FeJ wild type mice (Jackson Laboratories) were infected intranasally with 10^3 CFUs of Mtb (35 μl), under light anesthesia with 2% isoflurane (MacGilvary et al, 2019; Sukumar et al, 2014; Tan et al, 2013). […] The next day the suspension was homogenized by bead beating with 5 mm steel beads in a TOMY microtube mixer (2×20 s), and stored at 4° C. until use. […] Administration began at two or six weeks post-infection as indicated. At time of sacrifice, the left lobe and accessory right lobe of the lung were homogenized in PBS+0.05% Tween 80 and serial dilutions plated on 7H10 agar plates with 100 μg/ml cycloheximide for bacterial load determination. The remaining three right lobes were fixed in 4% PFA in PBS. One lobe was used for histological analysis by standard hematoxylin and eosin (H&E) staining (Tufts Comparative Pathology Services). A Nikon Eclipse E400 with a SPOT insight color digital camera was used to image the histology samples."}, "[9]": {"biological_target": "T1, human CYP 450 1A2 (Homo sapiens, UniProt P05177)", "T1 sequence (P05177 1-516)": "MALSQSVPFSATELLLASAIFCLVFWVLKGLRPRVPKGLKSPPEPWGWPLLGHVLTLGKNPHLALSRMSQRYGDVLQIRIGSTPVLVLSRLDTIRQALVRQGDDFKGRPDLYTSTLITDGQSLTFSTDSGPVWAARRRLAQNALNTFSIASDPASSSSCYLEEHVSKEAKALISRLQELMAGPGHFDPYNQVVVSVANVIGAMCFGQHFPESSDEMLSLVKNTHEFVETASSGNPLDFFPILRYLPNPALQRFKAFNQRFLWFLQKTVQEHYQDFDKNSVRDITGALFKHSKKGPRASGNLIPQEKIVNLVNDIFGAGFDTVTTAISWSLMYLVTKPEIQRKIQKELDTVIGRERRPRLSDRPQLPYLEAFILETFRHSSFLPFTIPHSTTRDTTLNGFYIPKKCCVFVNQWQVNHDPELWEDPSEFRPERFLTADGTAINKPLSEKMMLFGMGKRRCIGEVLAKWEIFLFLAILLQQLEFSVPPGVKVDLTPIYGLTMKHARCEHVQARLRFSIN", "experiment": "Human cytochrome P450 inhibition, 1A2", "type": "in vitro ADME", "conditions": "10 μM"}, "[10]": {"tested_on": "Mtb-infected J774 cells", "conditions": "10 μM for 24 h; 5 days post-infection"}, "[11]": {"experiment": "Mouse pharmacokinetics, single oral dose", "type": "in vivo, CD-1 mice", "procedure": "Blood samples were collected in K2EDTA coated tubes pre-dose, 0.5, 1, 3 and 5 hrs post-dose, placed on ice, and centrifuged to recover plasma. The recovered plasma was kept at −80° C. as needed prior to analysis, which was performed as previously described (Wang et al, 2020). In brief, a Sciex Applied Biosystems Qtrap 4000 triple-quadrupole mass spectrometer coupled to an Agilent 1260 HPLC system was used for HPLC coupled to tandem mass spectrometry (LC-MS/MS) quantitative analysis of the samples, with chromatography attained using an Agilent Zorbax SB-C8 column (2.1×30 mm; particle size, 3.5 μm) and a reverse phase gradient elution. The aqueous mobile phase consisted of Milli-Q deionized water with 0.1% formic acid (A), while the organic mobile phase was 0.1% formic acid in acetonitrile (B). The gradient set-up was as follows: 5-90% B over 2 mins, 1 min at 90% B, then an immediate drop to 5% B and an additional 1 min at 5% B. Quantification of molecules was carried out via multiple-reaction monitoring of parent/daughter transitions in electrospray positive-ionization mode, and sample analyses accepted if quality control and standard samples had concentrations within 20% of the nominal concentration. Preparation of compounds for generation of standard curves and quality control spiking solutions were performed as previously described (Wang et al, 2020). Data were processed using Analyst software (Version 1.6.2; Applied Biosystems Sciex)."}, "[12]": {"tested_on": "rv2390c′::GFP reporter Mtb strain", "type": "cell-based, Mycobacterium tuberculosis"}, "[13]": {"tested_on": "Mtb", "experiment": "Mtb growth assay in standard 7H9 media (OD600)", "conditions": "10 μM", "excerpt": "Bacterial growth was tracked by measuring OD600 every 3 days for 12 days. […] Bacterial growth was tracked by measurement of D600 every 3 days over 12 days."}, "[14]": {"biological_target": "human CYP 450 2D6 (Homo sapiens, UniProt P10635)", "sequence (P10635 whole entry)": "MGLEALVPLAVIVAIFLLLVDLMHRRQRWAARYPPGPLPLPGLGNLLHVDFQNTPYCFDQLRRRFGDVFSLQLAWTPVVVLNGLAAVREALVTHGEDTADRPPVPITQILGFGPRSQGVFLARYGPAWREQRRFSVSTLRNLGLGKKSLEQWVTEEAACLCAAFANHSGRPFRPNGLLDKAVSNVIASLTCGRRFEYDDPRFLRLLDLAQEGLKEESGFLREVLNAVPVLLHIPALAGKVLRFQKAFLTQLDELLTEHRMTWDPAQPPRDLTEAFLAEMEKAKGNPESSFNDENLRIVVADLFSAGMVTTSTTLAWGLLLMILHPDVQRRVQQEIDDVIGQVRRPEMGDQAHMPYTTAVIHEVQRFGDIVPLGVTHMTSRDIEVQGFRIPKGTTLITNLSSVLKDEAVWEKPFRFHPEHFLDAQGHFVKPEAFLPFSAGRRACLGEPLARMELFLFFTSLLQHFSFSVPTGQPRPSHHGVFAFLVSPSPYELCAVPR", "experiment": "Human cytochrome P450 inhibition, 2D6", "type": "in vitro ADME", "conditions": "10 μM"}, "[15]": {"conditions": "250 mg/kg oral gavage 5 times a week for 2 weeks, started 2 weeks post-infection"}, "[16]": {"conditions": "250 mg/kg oral gavage for two or four weeks, started 6 weeks post-infection"}}, "note": "Read-outs that look alike come from different tables or passages of the source."}
{"smiles": "CCSc1ncc(CN2CCN(c3nc4ccccc4o3)CC2)cn1", "note": "[Compound C6, 2-(4-((2-(ethylthio)pyrimidin-5-yl)methyl)piperazin-1-yl)benzo[d]oxazole]", "values": [{"measurement": "t1/2 in human liver microsomes", "setting": "[1]", "result": 37.6, "unit": "min"}, {"measurement": "MLM t1/2", "setting": "[2]", "result": 48.5, "unit": "min"}, {"measurement": "effect of even chain fatty acids on growth inhibition in cholesterol media", "setting": "[3]; 10 μM, 4 mM acetate or 200 μM stearate", "result": "rescue inhibition"}, {"measurement": "Mtb growth in cholesterol media (in words)", "setting": "[3]; 10 μM, OD600", "result": "inhibited Mtb growth in cholesterol media"}, {"measurement": "effect of odd chain fatty acids on growth inhibition in cholesterol media", "setting": "[3]; 10 μM, additional odd chain carbon source", "result": "do not rescue inhibition"}, {"measurement": "effect of vitamin B12 on growth inhibition in cholesterol media", "setting": "[3]; 10 μM, vitamin B12 added", "result": "does not rescue inhibition"}, {"measurement": "Growth inhibition in cholesterol media phenotype", "setting": "[3]; compared to C6", "result": "Y"}, {"measurement": "% inhibition of CYP 2C19", "setting": "[4]", "result": 30.3, "unit": "%"}, {"measurement": "Mtb bacterial load / growth in primary murine BMDM (in words)", "setting": "[5]", "result": "significant decrease in bacterial load"}, {"measurement": "solubility kinetic", "setting": "[6]; PBS, pH 7.4, aqueous buffer, kinetic from dmso stock, Table 2", "result": 76.4, "unit": "µM"}, {"measurement": "solubility kinetic", "setting": "[6]; pH 7.4 phosphate buffered saline (PBS)", "result": 76.4, "unit": "µM"}, {"measurement": "% inhibition of CYP 2C9", "setting": "[7]", "result": 25.7, "unit": "%"}, {"measurement": "Mtb growth in lungs (CFU), short-term infection", "setting": "[8]; [15]", "result": "significantly inhibited Mtb growth in the mice lungs"}, {"measurement": "lung histology, short-term infection", "setting": "[8]; [15]", "result": "less cellular infiltration"}, {"measurement": "lung bacterial load, longer-term infection", "setting": "[8]; [16]", "result": "significant decrease in bacterial load"}, {"measurement": "lung histopathology, longer-term infection", "setting": "[8]; [16]", "result": "improved histopathology"}, {"measurement": "% inhibition of CYP 1A2", "setting": "[9]", "result": "< 1", "unit": "%"}, {"measurement": "accumulation in Mtb-infected J774 cells", "setting": "[10]", "result": "trend of greater C6 accumulation in the Mtb-infected J774 cells than uninfected J774 cells"}, {"measurement": "Kp at 5 h", "setting": "[11]; female, CD-1, mouse, single 25 mg/kg po dose, 5 h, lung vs plasma, read-out: Mouse PK Clung/Cplasma at t = 5 h", "result": 0.88}, {"measurement": "AUC0-5 h", "setting": "[11]; single 5 mg/kg oral (po) dose, plasma, CD-1 mice (n=2)", "result": 5481, "unit": "ng·h/mL"}, {"measurement": "Mouse PK AUC0-5h", "setting": "[11]; single 25 mg/kg po dose, plasma, CD-1 mice", "result": 25713, "unit": "ng·h/mL"}, {"measurement": "rv2390c′::GFP reporter signal upon Mtb exposure to high [Cl−] (in words)", "setting": "[12]; 10 μM, 250 mM NaCl", "result": "increased rv2390c′::GFP reporter signal"}, {"measurement": "rv2390c′::GFP Cl− response phenotype", "setting": "[12]; compared to C6", "result": "Y"}, {"measurement": "rv2390c′::GFP response phenotype", "setting": "[12]; screen hits, high chloride (250 mM NaCl, pH 6.4)", "result": "Increases induction in high"}, {"measurement": "Mtb growth in standard 7H9 media", "setting": "[13]", "result": "no effect"}, {"measurement": "% inhibition of CYP 2D6", "setting": "[14]", "result": 10.5, "unit": "%"}]}
